The test deals with T1, PRKCI (PKC iota) (Homo sapiens, UniProt P41743).
T1 construct: purchased Thermo Fisher Scientific (Life Technologies) SelectScreen
Description: SelectScreen Z'LYTE. In kind it is biochemical. The essentials: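 SelectScreen broad panel; activity (Z'LYTE, Adapta) plus binding formats. ATP: Km app for CSF1R Z'LYTE; 10 for CAMK1 Adapta. Readout = % per kinase.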

Molecules are shown by their SMILES.

T1 sequence (P41743 whole entry): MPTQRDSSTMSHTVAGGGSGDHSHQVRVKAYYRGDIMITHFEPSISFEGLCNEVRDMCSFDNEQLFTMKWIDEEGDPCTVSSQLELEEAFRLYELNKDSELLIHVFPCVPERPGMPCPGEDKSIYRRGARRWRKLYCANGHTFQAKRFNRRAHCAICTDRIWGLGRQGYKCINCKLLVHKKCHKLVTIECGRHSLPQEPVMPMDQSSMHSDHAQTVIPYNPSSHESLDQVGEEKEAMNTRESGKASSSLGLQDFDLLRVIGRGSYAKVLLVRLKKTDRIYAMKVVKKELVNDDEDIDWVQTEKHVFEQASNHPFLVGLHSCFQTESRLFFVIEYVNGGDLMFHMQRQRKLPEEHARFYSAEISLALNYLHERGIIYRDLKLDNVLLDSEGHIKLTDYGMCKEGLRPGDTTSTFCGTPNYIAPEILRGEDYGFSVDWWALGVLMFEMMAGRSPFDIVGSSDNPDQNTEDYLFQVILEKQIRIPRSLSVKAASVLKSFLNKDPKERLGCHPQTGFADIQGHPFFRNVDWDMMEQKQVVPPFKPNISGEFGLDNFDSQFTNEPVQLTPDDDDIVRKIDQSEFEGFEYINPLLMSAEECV

A word on the inhibition: it is the drop in the measured response relative to a control, in per cent. In the case of `CN(C(=O)CN1CCOCC1)c1ccc2sc3c(-c4cccc5c(=O)cc(N6CC7CCC(C6)O7)oc45)cccc3c2c1` [NU5455], the inhibition at 1 µM was -0.8%.

The record behind these values is PMC6934184, “Selective DNA-PKcs inhibition extends the therapeutic index of localized radiotherapy and chemotherapy” (The Journal of Clinical Investigation, 2019).
